# Several values for one entry are separate records, joined by “and”; a condition that tells them apart may be missing. Equal entries are not always repeated.
# System: 422866-222-R5-J1-PDC spheroids with HUVEC/MSC, viability
# Assay: Anticancer human tumor 422866-222-R5-J1-PDC patient-derived pancreatic adenocarcinoma cell line growth inhibition [GQUAD]
# Settings: for viability, T/C: stronger effect = lower value
# Excerpt: DNA G-quadruplex Stabilizer Agents in Combinations in Complex Spheroids
# A high-throughput screen of multi-cell type tumor spheroids was designed to identify active combinations of DNA G-quadruplex stabilizer agents and targeted small molecules. Complex spheroids include a stromal component modeled by human endothelial cells (HUVEC) and fibroblasts modeled by human mesenchymal stem cells (MSCs). The concentration ranges selected for each drug and investigational agent were based upon clinically achievable concentrations if the clinical Cmax of the agent was known.
# Compounds. The drugs and investigational agents: pidnarulex (CX-5461; NSC782164), APTO-253 (NSC789042), BRACO-19 (NSC847499), peposertib (NSC802822), ceralasertib (NSC780249), elimusertib (NSC800525), camonsertib (NSC841442), AZD-1390 (NSC803789), olaparib (NSC753686), talazoparib (NSC767125), ART-558 (NSC835418), sotorasib (NSC818433), MRTX-1133 (NSC836407), SN-38 (NSC673596), topotecan (NSC609699), etoposide (NSC141540), doxorubicin (NSC123127), gemcitabine (NSC613327), 5-fluorouracil (NSC19893), paclitaxel (NSC125973), vemurafenib (NSC761431), panobinostat (NSC761190), R-306465 (JNJ-16241199; NSC773264), adavosertib (NSC754352), TP-3654 (NSC805149), carboplatin (NSC241240), KSQ-4279 (NSC840948), and staurosporine (NSC755774) were obtained from the National Cancer Institute (NCI) Developmental Therapeutics Program Chemical Repository (34). The FDA-approved anticancer drug set is available from the NCI Developmental Therapeutics Program. […] The stock solutions were prepared in dimethyl sulfoxide (DMSO, Sigma-Aldrich, St. Louis, MO, cat. D2650) at 800-fold the tested concentration and stored at -70 degrees C prior to their use. All drugs and investigational agents were tested over a range starting from a high concentration at or near the clinical Cmax and decreasing in half-log increments. If the clinical Cmax for an agent had not been determined, the highest concentration tested was 10 microM.
# 2.3 Cell Culture. All cells were maintained in an incubator at 37 degrees C and 5% CO2 with 95% humidity. The PDC lines were cultured according to standard operating procedures established by the NCI PDMR. All PDCs were thawed and cultured in Matrigel-coated flasks prepared with a working solution of 1X Ham's F-12 nutrient mix, without supplementation (Invitrogen, cat. 11765054), 100 U/mL penicillin-streptomycin (Invitrogen, cat. 15140122), and 2.5% Matrigel (Corning Inc., cat. 354248) for the first three passages. The 857933-349-R-J2-PDC line was cultured in 6C/Colon 1B media, which includes advanced DMEM/F-12 (Thermo Fisher Scientific, cat. 12634028), 10 mM HEPES (Thermo Fisher Scientific, cat. 15630080), 1X GlutaMAX supplement (Thermo Fisher Scientific, cat. 35050061), 0.1 mg/mL primocin (InvivoGen, cat. ant-pm-2), 10% defined fetal bovine serum, heat inactivated (HyClone Laboratories Inc., cat. SH30070.03HI), 50% L-WRN conditioned media (ATCC, cat. CRL-3276), 1.25 mM N-Acetyl-L-cysteine (Sigma-Aldrich, cat. A9165), 10 mM nicotinamide (Sigma-Aldrich, cat. N0636), 1X B-27 supplement (Thermo Fisher Scientific, cat. 17504044), 1X N-2 supplement (Thermo Fisher Scientific, cat. 17502048), 10 microM Y-27632 dihydrochloride (Tocris Bioscience, cat. 1254), and 50 ng/mL human EGF recombinant protein (Thermo Fisher Scientific, cat. PHG0311). The 485176-168-R4-J1-PDC line was cultured in Panc media, which includes all 6C/Colon 1B media components plus 100 ng/mL human FGF-10 (Thermo Fisher Scientific, cat. 100-26), 500 nM SB-431542 (Selleckchem, cat. S1067), and gastrin (Tocris, cat. 3006).
# […]
# 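Also: spheroids exposed to compounds for seven days before reading.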
# 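For viability, T/C in this document: percent viability relative to DMSO vehicle control taken as 100%.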
compound,measurement,setting,value
C=CC(=O)N1CCN(c2nc(=O)n(-c3c(C)ccnc3C(C)C)c3nc(-c4c(O)cccc4F)c(F)cc23)C(C)C1 (configuration not stated),"viability, T/C",compound 0.0316 µM,36.5% and 39.1% and 37%
same,"viability, T/C",compound 0.1 µM,32.9% and 29.9% and 28.5%
same,"viability, T/C",compound 0.316 µM,26.3% and 28.8% and 27.6%
same,"viability, T/C",compound 1 µM,27.3% and 26.2% and 23%
same,"viability, T/C",compound 3.16 µM,28.3% and 28.8% and 27.6%
same,"viability, T/C",compound 10 µM,29.3% and 30.3% and 27.3%
same,IC50,curve of compound,< 31.6 nM
CCCS(=O)(=O)Nc1ccc(F)c(C(=O)c2c[nH]c3ncc(-c4ccc(Cl)cc4)cc23)c1F,"viability, T/C",compound 0.0316 µM,96.7% and 101% and 93.4%
same,"viability, T/C",compound 0.1 µM,99.6% and 95.4% (2×)
same,"viability, T/C",compound 0.316 µM,60% and 140% and 121%
same,"viability, T/C",compound 1 µM,45.6% and 153% and 136%
same,"viability, T/C",compound 3.16 µM,32.6% and 184% and 167%
same,"viability, T/C",compound 10 µM,32.6% and 108% and 52.1%
CN(C)c1ccc(Nc2c3ccc(NC(=O)CCN4CCCC4)cc3nc3cc(NC(=O)CCN4CCCC4)ccc23)cc1,"viability, T/C",compound 0.0316 µM,96.4% [middle of 12 runs]
same,"viability, T/C",compound 0.1 µM,96.8% [middle of 12 runs]
same,"viability, T/C",compound 1 µM,90.4% [middle of 12 runs]
same,"viability, T/C",compound 3.16 µM,96% [middle of 12 runs]
same,IC50,"compound alone, run of 04/22/2024",> 10000 nM
COc1cccc2c1C(=O)c1c(O)c3c(c(O)c1C2=O)CC(O)(C(=O)CO)CC3OC1CC(N)C(O)C(C)O1 (configuration not stated),"viability, T/C",compound 0.0316 µM,94.3% and 90.9% and 92.6%
same,"viability, T/C",compound 0.1 µM,58.5% and 62.5% and 78.8%
same,"viability, T/C",compound 0.316 µM,61.9% and 57.1% and 68.5%
same,"viability, T/C",compound 1 µM,41.8% and 51.2% and 47.5%
same,"viability, T/C",compound 3.16 µM,35.5% and 35.9% and 29.4%
same,"viability, T/C",compound 10 µM,32% and 40.5% and 31.3%
same,IC50,curve of compound,421 nM and 585 nM and 812 nM
CC[C@@]1(O)C(=O)OCc2c1cc1n(c2=O)Cc2cc3c(CN(C)C)c(O)ccc3nc2-1,"viability, T/C",compound 0.000999 µM,83.5% and 106% and 100%
same,"viability, T/C",compound 0.00316 µM,90.9% and 90.2% and 96.4%
same,"viability, T/C",compound 0.00999 µM,95.7% and 88.8% and 103%
same,"viability, T/C",compound 0.0316 µM,75.4% and 74.9% and 70.9%
same,"viability, T/C",compound 0.0999 µM,45.5% and 52.7% and 40.6%
same,"viability, T/C",compound 0.316 µM,42.4% and 50.6% and 38.1%
same,IC50,curve of compound,80.8 nM and 258 nM and 67.7 nM
CC1COCCN1c1cc(-c2ccnn2C)c2ccnc(-c3ccn[nH]3)c2n1 (configuration not stated),"viability, T/C",compound 0.0316 µM,80.3% and 71.6% and 81.9%
same,"viability, T/C",compound 0.1 µM,63.1% and 61.5% and 48.7%
same,"viability, T/C",compound 0.316 µM,47.8% and 50% and 45.2%
same,"viability, T/C",compound 1 µM,45% and 40.2% and 45.6%
same,"viability, T/C",compound 3.16 µM,63.9% and 81.7% and 45%
same,"viability, T/C",compound 10 µM,81.2% and 80.8% and 88.8%
CC1COCCN1c1cc(C2(O)CC3CCC(C2)O3)c2cnn(-c3ccn[nH]3)c2n1 (configuration not stated) + CN(C)c1ccc(Nc2c3ccc(NC(=O)CCN4CCCC4)cc3nc3cc(NC(=O)CCN4CCCC4)ccc23)cc1,IC50,"curve of first compound, second compound 0.0316 µM",> 10000 nM
same,IC50,"curve of first compound, second compound 0.1 µM",31.6 nM
same,IC50,"curve of first compound, second compound 0.316 µM",> 10000 nM
same,IC50,"curve of first compound, second compound 1 µM",31.6 nM
same,IC50,"curve of first compound, second compound 3.16 µM",> 10000 nM
same,IC50,"curve of first compound, second compound 10 µM",31.6 nM
same,"viability, T/C","second compound 0.0316 µM, first compound 0.0316 µM",65.6%
same,"viability, T/C","second compound 0.0316 µM, first compound 0.1 µM",52.2%
same,"viability, T/C","second compound 0.0316 µM, first compound 0.316 µM",55.3%
same,"viability, T/C","second compound 0.0316 µM, first compound 1 µM",90%
same,"viability, T/C","second compound 0.0316 µM, first compound 3.16 µM",87.1%
same,"viability, T/C","second compound 0.0316 µM, first compound 10 µM",92.5%
same,"viability, T/C","second compound 0.1 µM, first compound 0.0316 µM",79.8%
same,"viability, T/C","second compound 0.1 µM, first compound 0.1 µM",49.7%
same,"viability, T/C","second compound 0.1 µM, first compound 0.316 µM",45.7%
same,"viability, T/C","second compound 0.1 µM, first compound 1 µM",108%
same,"viability, T/C","second compound 0.1 µM, first compound 3.16 µM",91.4%
same,"viability, T/C","second compound 0.1 µM, first compound 10 µM",90.4%
same,"viability, T/C","second compound 0.316 µM, first compound 0.0316 µM",78.8%
same,"viability, T/C","second compound 0.316 µM, first compound 0.1 µM",45.1%
same,"viability, T/C","second compound 0.316 µM, first compound 0.316 µM",64.5%
same,"viability, T/C","second compound 0.316 µM, first compound 1 µM",90%
same,"viability, T/C","second compound 0.316 µM, first compound 3.16 µM",94.1%
same,"viability, T/C","second compound 0.316 µM, first compound 10 µM",88.4%
same,"viability, T/C","second compound 1 µM, first compound 0.0316 µM",61.9%
same,"viability, T/C","second compound 1 µM, first compound 0.1 µM",49.6%
same,"viability, T/C","second compound 1 µM, first compound 0.316 µM",39.4%
same,"viability, T/C","second compound 1 µM, first compound 1 µM",88%
same,"viability, T/C","second compound 1 µM, first compound 3.16 µM",89.1%
same,"viability, T/C","second compound 1 µM, first compound 10 µM",83.8%
same,"viability, T/C","second compound 3.16 µM, first compound 0.0316 µM",57.4%
same,"viability, T/C","second compound 3.16 µM, first compound 0.1 µM",51.8%
same,"viability, T/C","second compound 3.16 µM, first compound 0.316 µM",50.2%
same,"viability, T/C","second compound 3.16 µM, first compound 1 µM",87.3%
same,"viability, T/C","second compound 3.16 µM, first compound 3.16 µM",95.5%
same,"viability, T/C","second compound 3.16 µM, first compound 10 µM",83.9%
same,"viability, T/C","second compound 10 µM, first compound 0.0316 µM",59.8%
same,"viability, T/C","second compound 10 µM, first compound 0.1 µM",47.3%
same,"viability, T/C","second compound 10 µM, first compound 0.316 µM",43.1%
same,"viability, T/C","second compound 10 µM, first compound 1 µM",93.1%
same,"viability, T/C","second compound 10 µM, first compound 3.16 µM",88.3%
same,"viability, T/C","second compound 10 µM, first compound 10 µM",88.5%
CC1COCCN1c1cc(C2(S(C)(=N)=O)CC2)nc(-c2ccnc3[nH]ccc23)n1 (configuration not stated),"viability, T/C",compound 0.0316 µM,81.8% and 101% and 93.1%
same,"viability, T/C",compound 0.1 µM,90.2% and 107% and 98.3%
same,"viability, T/C",compound 0.316 µM,105% and 97.1% and 114%
same,"viability, T/C",compound 1 µM,70.9% and 82.1% and 91.5%
same,"viability, T/C",compound 3.16 µM,43% and 44.8% and 50.8%
same,"viability, T/C",compound 10 µM,38% and 39.5% and 36.4%
same,IC50,curve of compound,2210 nM and 2770 nM and 3240 nM
